Reference: patent US20190374563A1, “TREATMENT OF KLEBSIELLA PNEUMONIAE INFECTIONS WITH ANTIBACTERIAL AMINOGLYCOSIDE COMPOUNDS” (Achaogen, Inc., priority 2009, published 2019)
In brackets after ≈: the same amount, converted by molar mass. Read-outs that look alike come from different tables or passages of the source.

Assays:
E. coli ATCC 25922 = assay: murine septicemia model of infection; type: in vivo; settings: mice, single SC or IV dose 1 hour after IP challenge, mortality for 7 days; ED50 values are mg/kg
Experimental: (§1) Two models were run on each compound, using E. coli and P. aeruginosa QC bacterial strains. Both studies employed the same design. […] At 1 hour after bacterial challenge, the mice received a single SC or IV dose of vehicle or test substance to assess in vivo anti-infective activity. Mortality was recorded once daily for 7 days after bacterial inoculation.

P. aeruginosa ATCC 27853 = assay: murine septicemia model of infection; type: in vivo; settings: mice, single SC or IV dose 1 hour after IP challenge, mortality for 7 days; ED50 values are mg/kg
Experimental: as §1

[1] = test system: K. pneumoniae producing KPC (n = 25); assay: MIC by microdilution, clinical isolates; type: cell-based; settings: for S (%), susceptible isolates: CLSI criteria, tigecycline US FDA criteria
Experimental: (§2) The in vitro activity of representative antibacterial aminoglycoside compounds against a collection of 102 K. pneumoniae clinical isolates collected from January 2006 to October 2007 at the University of Pittsburgh Medical Center, and three Cleveland institutions including University Hospitals Case Medical Center, the Cleveland Clinic, and the Louis Stokes Department of Veterans Affairs Medical Center was analyzed. The 102 K. pneumoniae isolates were selected based on a multidrug-resistant (MDR) phenotype (i.e., resistance to >3 antibiotic classes). Twenty-five isolates were KPC carbapenemase producing (KPC-Kp), and were part of a previous study where the β-lactamase background and clonality were characterized (see Endimiani, A., A. M. Hujer, F. Perez, C. R. Bethel, K. M. Hujer, J. Kroeger, M. Oethinger, D. L. Paterson, M. D. Adams, M. R. Jacobs, D. J. Diekema, G. S. Hall, S. G. Jenkins, L. B. Rice, F. C. Tenover, and R. A. Bonomo. 2009. Characterization of blaKPC-containing Klebsiella pneumoniae isolates detected in different institutions in the Eastern USA. J Antimicrob Chemother 63:427-37).
(§3) Minimum inhibitory concentrations (MICs) were performed by microdilution method using cation-adjusted Mueller-Hinton broth, according to the Clinical and Laboratory Standards Institute (CLSI) criteria (see CLSI. 2006. Methods for dilution antimicrobial susceptibility tests for bacteria that grow aerobically; approved standard-Seventh edition. Clinical and Laboratory Standard Institute, Wayne, Pa. CLSI document M7-A7). These MIC assays were conducted following the same protocol as set forth in Example 110. […] The following ATCC control strains were used: Escherichia coli ATCC 25922, Pseudomonas aeruginosa ATCC 27853, and K. pneumoniae ATCC 700603.

[2] = test system: multidrug-resistant (MDR) K. pneumoniae isolates (n = 102); assay: MIC by microdilution, clinical isolates; type: cell-based; settings: for S (%), susceptible isolates: CLSI criteria, tigecycline US FDA criteria
Experimental: as §2, §3

[3] = test system: P. aeruginosa ATCC 27853 (APAE001); assay: MIC assay, CLSI broth microdilution; type: cell-based; settings: Pseudomonas aeruginosa
Procedure, shortened: (§4)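 Test compounds were diluted two-fold at 2× strength in Mueller Hinton Broth, then combined 1:1 with saline-suspended bacteria from an overnight agar colony to reach 5×10^5 CFU/mL. Incubation followed at 35° C. for 20 hours in ambient air, per CLSI reference methods.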

[4] = test system: E. coli ATCC 25922 (AECO001); assay: MIC assay, CLSI broth microdilution; type: cell-based; design: MIC AECO001: unit not given here
Procedure, shortened: as §4

[5] = test system: A. calcoaceticus AACA005, AAC(6′)-I; assay: MIC assay, aminoglycoside resistant strain; type: cell-based; design: unit not given beside the values; settings: Table 3; A. calcoaceticus AAC(6′)-I
Experimental: (§5) Minimum inhibitory concentrations (MIC) were determined by reference Clinical and Laboratory Standards Institute (CLSI) broth microdilution methods per M7-A7 [2006]. Quality control ranges utilizing E. coli ATCC 25922, P. aeruginosa ATCC 27853 and S. aureus ATCC 29213, and interpretive criteria for comparator agents were as published in CLSI M100-S17 [2007]. Briefly, serial two-fold dilutions of the test compounds were prepared at 2× concentration in Mueller Hinton Broth. The compound dilutions were mixed in 96-well assay plates in a 1:1 ratio with bacterial inoculum. The inoculum was prepared by suspension of a colony from an agar plate that was prepared the previous day. Bacteria were suspended in sterile saline and added to each assay plate to obtain a final concentration of 5×10^5 CFU/mL. The plates were incubated at 35° C. for 20 hours in ambient air.
(§6) These MIC assays were conducted following the same protocol as set forth in Example 110. As shown, substituted sisomicin derivatives with groups other than methyl at the 6′-position have improved activity against strains expressing the AAC6′-modifying enzymes.

[6] = test system: E. coli AECO040, AAC(6′)-I; assay: MIC assay, aminoglycoside resistant strain; type: cell-based; design: unit not given beside the values; settings: Table 3; E. coli AAC(6′)-I
Experimental: as §5, §6

[7] = K. pneumoniae producing KPC (n = 25)
[8] = Klebsiella pneumoniae, K. pneumoniae producing KPC (n = 25), read-out: MIC50
[9] = Klebsiella pneumoniae, K. pneumoniae producing KPC (n = 25), read-out: MIC90
[10] = Klebsiella pneumoniae, Total MDR K. pneumoniae isolates (n = 102), read-out: MIC50
[11] = Klebsiella pneumoniae, Total MDR K. pneumoniae isolates (n = 102), read-out: MIC90
[12] = Total MDR K. pneumoniae isolates (n = 102)

| SMILES | ED50/MIC E. Coli (E. coli ATCC 25922) | ED50/MIC P. aeruginosa (P. aeruginosa ATCC 27853) | S (%), susceptible isolates [1, 7] | MIC50 [1, 8] | MIC90 [1, 9] | MIC50 [2, 10] | MIC90 [2, 11] | S (%), susceptible isolates [2, 12] | other results |
| --- | --- | --- | --- | --- | --- | --- | --- | --- | --- |
| NCC[C@H](O)C(=O)N[C@@H]1C[C@H](N)[C@@H](O[C@H]2O[C@H](CN)[C@@H](O)[C@H](O)[C@H]2O)[C@H](O)[C@H]1O[C@H]1O[C@H](CO)[C@@H](O)[C@H](N)[C@H]1O [Amikacin, amikacin] | 1.5 | 13 | 48.0% | 32 µg/mL (≈ 54.6 µM) | 32 µg/mL (≈ 54.6 µM) | 2 µg/mL (≈ 3.42 µM) | 32 µg/mL (≈ 54.6 µM) | 78.4% | S (%), susceptible isolates ([1]; K. pneumoniae producing KPC (n = 25), listed as amikacin): 48%; isolates fully resistant (MICs of 64 μg/ml) ([2]; MDR K. pneumoniae isolates (n = 102)): five; S (%), susceptible isolates ([2]; Total MDR K. pneumoniae isolates (n = 102), listed as amikacin): 78% |
| NCC[C@H](O)C(=O)N[C@@H]1C[C@H](N)[C@@H](O[C@H]2O[C@H](CN)CC[C@H]2N)[C@H](O)[C@H]1O[C@H]1O[C@H](CO)[C@@H](O)[C@H](N)[C@H]1O [Arbekacin, arbekacin] | – | – | – | 8 µg/mL (≈ 14.5 µM) | 16 µg/mL (≈ 29 µM) | 4 µg/mL (≈ 7.24 µM) | 16 µg/mL (≈ 29 µM) | – | MIC ([1]; Klebsiella pneumoniae, all KPC-Kp strains, read-out: MICs of all strains): < 32 µg/mL |
| CC(C)(O/N=C(\C(=O)N[C@@H]1C(=O)N2C(C(=O)[O-])=C(C[n+]3ccccc3)CS[C@H]12)c1csc(N)n1)C(=O)O [Ceftazidime, ceftazidime] | – | – | 0.0% | > 32 µg/mL | > 32 µg/mL | > 32 µg/mL | > 32 µg/mL | 9.8% | MIC90 [2, 12]: >32 µg/mL |
| CN[C@@H]1[C@@H](O)[C@@H](O[C@@H]2[C@@H](O)[C@H](O[C@H]3OC(CNCC4CCNCC4)=CC[C@H]3N)[C@@H](N)C[C@H]2NC(=O)[C@@H](O)CN)OC[C@]1(C)O [Example 15, 6′-(Methyl-piperidin-4-yl)-1-(3-amino-2(S)-hydroxy-propionyl)-sisomicin] | <1 | 1 | – | – | – | – | – | – | MIC ([3]; ATCC27853, read-out: MIC APAE001): 1 to 16 µg/mL (≈ 1.58 to 25.3 µM) |
| CN[C@@H]1[C@@H](O)[C@@H](O[C@@H]2[C@@H](O)[C@H](O[C@H]3OC(CNCCO)=CC[C@H]3N)[C@@H](N)C[C@H]2NC(=O)[C@@H](O)CN)OC[C@]1(C)O [Example 16, 6′-(2-Hydroxy-ethyl)-1-(3-amino-2(S)-hydroxy-propionyl)-sisomicin] | 1 | 3 | – | – | – | – | – | – | – |
| CN[C@@H]1[C@@H](O)[C@@H](O[C@@H]2[C@@H](O)[C@H](O[C@H]3OC(CNCCCN)=CC[C@H]3N)[C@@H](N)C[C@H]2NC(=O)[C@@H](O)CN)OC[C@]1(C)O [Example 17, 6′-(3-Amino-propyl)-1-(3-amino-2(S)-hydroxy-propionyl)-sisomicin] | 1 | 5 | – | – | – | – | – | – | MIC ([3]; Table 1, APAE001 is ATCC27853, read-out: MIC APAE001): 1 to 16 µg/mL (≈ 1.69 to 27 µM) |
| CN[C@@H]1[C@@H](O)[C@@H](O[C@@H]2[C@@H](O)[C@H](O[C@H]3OC(CNCC(O)CN)=CC[C@H]3N)[C@@H](N)C[C@H]2NC(=O)[C@@H](O)CN)OC[C@]1(C)O (stereo partly drawn) [Example 22, 6′-(3-Amino-2-hydroxy-propyl)-1-(3-amino-2(S)-hydroxy-propionyl)-sisomicin] | 1 | 8 | – | – | – | – | – | – | – |
| CN[C@@H]1[C@@H](O)[C@@H](O[C@@H]2[C@@H](O)[C@H](O[C@H]3OC(CNCCCN)=CC[C@H]3N)[C@@H](N)C[C@H]2NC(=O)C2(O)CNC2)OC[C@]1(C)O [Example 57] | 2 | 14 | – | – | – | – | – | – | – |
| CN[C@@H]1[C@@H](O)[C@@H](O[C@@H]2[C@@H](O)[C@H](O[C@H]3OC(CN)=CC[C@H]3NC3CNC3)[C@@H](N)C[C@H]2NC(=O)[C@@H](O)CCN)OC[C@]1(C)O [Example 96, 2′-(Azetidin-3-yl)-1-(4-amino-2(S)-hydroxy-butyryl)-sisomicin] | <1 | 3 | – | – | – | – | – | – | – |
| CN[C@@H]1[C@@H](O)[C@@H](O[C@@H]2[C@@H](O)[C@H](O[C@H]3OC(CN)=CC[C@H]3NC(=N)N)[C@@H](N)C[C@H]2NC(=O)[C@@H](O)CCN)OC[C@]1(C)O [Example 103, 2′-Guanidinium-1-(4-amino-2(S)-hydroxy-butyryl)-sisomicin] | 2 | 6 | – | – | – | – | – | – | – |
| C[C@@H](O)[C@H]1C(=O)N2C(C(=O)O)=C(SCCN=CN)C[C@H]12 [Imipenem, imipenem] | – | – | 12.0% | 8 µg/mL (≈ 26.7 µM) | > 16 µg/mL | 0.5 µg/mL (≈ 1.67 µM) | 8 µg/mL (≈ 26.7 µM) | 75.5% | MIC ([4]; Escherichia coli, ATCC25922): 0.125 µg/mL (≈ 0.418 µM); S (%), susceptible isolates ([2]; Total MDR K. pneumoniae isolates (n = 102), listed as imipenem): approximately 75% |
| CNCC1=CC[C@@H](N)[C@@H](O[C@H]2C(O)[C@@H](O[C@H]3OC[C@](C)(O)[C@H](NC)[C@H]3O)[C@H](N)C[C@@H]2N)O1 (some centres unmarked) [Mono-substituted Compound 1] | – | – | – | – | – | – | – | – | MIC AECO001 ([4]; Table 3, E. coli ATCC25922): 1; MIC AACA005 [5]: 2; MIC AECO040 [6]: >64 |
| CN(C)c1cc(NC(=O)CNC(C)(C)C)c(O)c2c1C[C@H]1C[C@H]3[C@H](N(C)C)C(O)=C(C(N)=O)C(=O)[C@@]3(O)C(O)=C1C2=O [Tigecycline, tigecycline] | – | – | 96.0% | – | – | – | – | 90.2% | MIC50 ([1]; Klebsiella pneumoniae): 1 µg/mL (≈ 1.71 µM); MIC90 ([1]; Klebsiella pneumoniae): 2 µg/mL (≈ 3.41 µM); MIC50 ([2]; Klebsiella pneumoniae): 1 µg/mL (≈ 1.71 µM); MIC90 ([2]; Klebsiella pneumoniae): 2 µg/mL (≈ 3.41 µM); S (%), susceptible isolates ([2]; Total MDR K. pneumoniae isolates (n = 102), listed as tigecycline): ~90% |
| NC[C@H]1O[C@H](O[C@H]2[C@H](O)[C@@H](O[C@H]3O[C@H](CO)[C@@H](O)[C@H](N)[C@H]3O)[C@H](N)C[C@@H]2N)[C@H](N)C[C@@H]1O [Tobramycin, tobramycin] | – | – | 8.0% | 32 µg/mL (≈ 68.4 µM) | ≥ 64 µg/mL | 32 µg/mL (≈ 68.4 µM) | ≥ 64 µg/mL | 10.8% | S (%), susceptible isolates ([1]; K. pneumoniae producing KPC (n = 25), listed as tobramycin): 8%; MIC90 [2, 12]: ≥64 µg/mL |
